Data published in patent US7846697B2, “Method of producing a low molecular weight organic compound in a cell” (BLMaps, priority 2003, dated 2010).

System: E. coli strain KO1418 transformants
Assay: Toxicity of vanillin with constitutive expression of UGT85B1 or AS, growth on plates
Format: cell-based
Text: For experimentation with constitutive expression of UGT85B1 and AS, the E. coli strains JM109, and K01418 were transformed with the constructed plasmids pJH 430, pJH431, pJH432, pJH433, pJH434, pJH435, pJH436, pJH437, pJH438, pJH439, pJH440, and pJH441, and pKOL30 as control, employing standard transformation protocols. Transformants were selected for ampicilin resistance, and two transformants of each E. coli strain with each plasmid were kept for expression experiments. The E. coli transformants were inoculated from plate cultures into 2 ml liquid growth medium (LB medium containing ampicilin at 100 μg/ml), and allowed to grow for 20 hours at 37° C. The precultures were diluted 100 times 10^4 times and 10^6 times in growth medium, and 4 μl droplets of these cell suspensions were applied to the surface of Petri dishes containing solid LB-ampicilin medium containing varying concentrations of vanillin (based on the STV determinations described above). The plates were incubated at 37° C. for 24 hours, after which growth on the various concentrations of vanillin was monitored and recorded.

Measured: growth

COc1cc(C=O)ccc1O [Vanillin, vanillin]
+: KO1418 [pJH432], 0.16% vanillin | KO1418 [pKOL30], 0.16% vanillin
+++: KO1418 [pJH430], 0.08% vanillin | KO1418 [pJH430], 0.12% vanillin | KO1418 [pJH430], 0.16% vanillin | KO1418 [pJH431], 0.08% vanillin | KO1418 [pJH431], 0.12% vanillin | KO1418 [pJH431], 0.16% vanillin | KO1418 [pJH432], 0.08% vanillin | KO1418 [pJH432], 0.12% vanillin | KO1418 [pJH433], 0.08% vanillin | KO1418 [pJH433], 0.12% vanillin | KO1418 [pJH433], 0.16% vanillin | KO1418 [pKOL30], 0.08% vanillin
++: KO1418 [pKOL30], 0.12% vanillin
